Experimental data as given in patent publication US20190231666A1, “ANTI-DANDRUFF COMPOSITION” (Conopco, Inc., d/b/a UNILEVER, priority 2016, published 2019).

What was measured:
MCF7 cells = conditions: 13 μM myricetin vs DMSO vehicle control, FIGS. 2A and 2B; cited from earlier work
[1] = system: normal human epidermal keratinocytes (HEKa cells); assay: IL-8 release from keratinocytes stimulated with IL-17, IL-22 and TNFα; format: cell-based; conditions: 16 hrs
Procedure: To test the foregoing hypothesis, the inventors devised an in vitro model for the inflammatory conditions prevalent in the skin of subjects with dandruff. The model involves in vitro tissue culture of normal human epidermal keratinocytes (HEKa cells). The cells were exposed to a combination of IL-17, TNFα and IL-22 to stimulate an inflammatory-type response, which response was measured by production of IL-8 by the keratinocytes and also by analysis of their general gene expression profile. Adult proliferating human epidermal karatinocytes (HEKa) (from Thermo Fisher Scientific) used at low passage (p3 or lower). Cells were cultured in keratinocyte maintenance medium KGM Gold (Lonza Group) containing all components of the bullet kit plus 70 μM calcium. For the assay, cells were plated in KGM Gold with all components of the bullet kit except hydrocortisone and gentamycin, supplemented with 70 μM calcium. […] After 16 hrs the cell culture medium was removed and the amount of IL-8 cytokine released from the keratinocyte cells was quantified using a DuoSet IL-8 ELISA kit (R&D Systems Ltd). The keratinocyte cells were lysed in RIPA buffer and the total amount of protein in each sample quantified using a Pierce BCA protein assay kit (Thermofisher Ltd). […] All treatments were run in triplicate and a mean and standard deviation value calculated, the results being illustrated in FIG. 3.

[2] = 25° C.; cited from earlier work

For `O=c1c(O)c(-c2cc(O)c(O)c(O)c2)oc2cc(O)cc(O)c12` [Myricetin, myricetin], the “effect on gene expression changes observed in dandruff scalp skin relative to healthy scalp skin” value (MCF7 cells) is listed as “reverse some of the gene expression changes”, the “inflammatory response to the cytokines (IL-8 release)” value ([1]; 6.5 μg/ml myricetin, IL-17 200 ng/ml, IL-22 200 ng/ml, TNFa 10 ng/ml, p=0.0001) is listed as “marked inhibition” and the “production of IL-8 (inflammatory response)” value ([1]; HEKa cells, IL-17, TNFα and IL-22 stimulation, FIG. 3) is listed as “significant reduction”. The solubility in water [2] was “about 55 mg/L”.
